Patent US6723830B2, “Short peptides which selectively modulate the activity of protein kinases” (Children's Medical Center Corporation, priority 1998, dated 2004)
* marks the point of attachment. Myristoyl = CCCCCCCCCCCCCC(=O)*

Key:
[1] = Appetite suppression: food intake and body weight in mice; type: in vivo; settings: C57BL mice
Experimental: Male CB6F1 or C57BL mice (Harlan), about 2-4 months old, were fed a pelleted rodent maintenance diet (Koffolk, Tel Aviv, Israel, 19520). The food containers for each group were weighed daily and the average food consumption was calculated per mouse per day.
During the experimental period, the mice were injected intraperitoneally once a day for two consecutive days, 4 mg/mouse, with K085D102 (a Jak2-derived peptide from the αD region) solubilized in 10% DMSO in PBS+0.1% BSA in a volume of 0.2 ml. The control groups were injected with 0.2 ml of the vehicle only.
FIGS. 4 and 5 illustrate the results obtained with CB6F1 mice while Table II summarizes the results obtained with C57BL mice.

B16 melanoma cells = experiment: Induction of melanogenesis in B16 melanoma cells, observed by eye; type: cell-based, mouse; settings: 5 days incubation; increase in black pigment seen by eye; FIG. 7
Experimental: B16 melanoma cells (a mouse tumor cell line) were cultured in a 24-well plate, 10^5 cells/well, in the presence of various concentrations of K085D102, a Jak2-derived peptide from the αD region. After 5 days incubation in DMEM+10% fetal calf serum under standard conditions, the plate was observed by eye for melanogenesis. Melanogenesis induction was visualized by an increase in the amount of the black pigment in the well. The results are illustrated in FIG. 7 and clearly show a dose response down to a concentration as low as 0.15 μM of the Jak2 peptide of the αD region present in the well.

[2] = system: Human prostate cancer cells (PC3); experiment: Proliferation of human prostate cancer cells PC3 (methylene blue cell count); type: cell-based; settings: concentration at which significant inhibition of cell proliferation was observed; 72-80 hours incubation
Experimental: (§1) Human endothelial cells (referred to herein as “HEC cells”) are the cell line described by Schweitzer et al., Laboratory Investigation 76(1):25 (1997). Human prostate cancer cells (PC3) were obtained by the procedures disclosed in Arbiser et al., Proc. Natl. Acad. Sci. 94:861 (1997), the teachings of which are incorporated herein by reference.
(§2) 96 well, flat bottom, tissue culture microtiter plates were pre-coated with gelatin (Difco) immediately prior to cell plating by adding 0.100 ml/well of freshly filtered 1% gelatin in glass double distilled water (DDW). The wells were incubated for about 1 hour at 37° C., and then the excess solution was removed by aspiration.
(§3) Culture medium was prepared from DMEM, penicillin/streptomycin/glutamine (penicillin—100 U/ml; streptomycin—100 μμg/mL; and glutamine—2 mM) and 10% endotoxin free bovine calf serum (Hyclone). A suspension of the cell type being tested at 25×10^3 cells/ml was prepared in the above described culture medium and distributed 0.160 ml/well (about 4000 endothelial cells/well).
(§4) A series of αD peptide stock solutions was prepared by diluting a 10 mM solution of the αD peptide in 100% DMSO with phosphate buffered saline (PBS) containing 0.1% BSA. […]
(§5) The wells were washed one time with borate buffer (0.1 M, pH 8.5). […] After extracting overnight, the O.D. was read at 630 nm to determine the number of cells per well. […]

[3] = system: Human endothelial cells (HEC cells); experiment: Proliferation of human endothelial cells (methylene blue cell count); type: cell-based; settings: concentration at which significant inhibition of cell proliferation was observed; 72-80 hours incubation
Experimental: as §1, §2, §3, §4, §5

CD4+ T cells = experiment: Th1/Th2 bioassay: IL-4 and IFNγ secretion by ELISA; type: cell-based, Balb/c mice; settings: CD4+ T cells incubated 5 days with 0.4, 2 or 10 μM peptide; 24 hour re-stimulation; FIG. 6
Experimental: 0.5×10^6 small resting CD4+ T cells were isolated from lymph nodes of 8 week-old Balb/c mice. These CD4+ T cells were incubated for 5 days in 2 ml culture medium in 24 well plates coated with anti-CD3 and anti-CD28 antibodies: (5 μg/ml and 2 μg/ml, respectively). 0.4, 2 or 10 μM Jak-derived peptides, initially in 10 μl DMSO, were present in the medium during the 5 day activation period. Control wells contained 10 μl of DMSO (the solvent of the peptide).
At the end of the 5 day stimulation period, the medium was replaced with fresh medium containing 10 u/ml IL-2 and the cells were removed from the antibody-coated wells to uncoated wells for a 3 day “rest” and expansion period. Under these stimulating and rest conditions, the differentiation process led to the acquisition of Th2 phenotype (high IL-4 and low IFNγ production upon secondary challenge).
At the end of the rest period, the cells were removed, washed and counted. 0.5×10^6 cells were re-stimulated in 1 ml of culture medium by incubation for 24 hours on anti-CD3-+anti-CD28-coated 24 well plates. At the end of the 24 hour re-stimulation period, the supernatant was removed and the level of secreted IL-4 and IFNγ was determined by ELISA. The results were expressed as u/ml or pg/ml of IL-4 and IFNγ respectively, which were secreted into the culture medium by 0.5×10^6 cells during the re-stimulation period.

fresh adipocytes = experiment: Glucose uptake (3H-deoxy glucose) by adipose tissue cells; type: cell-based, rats; settings: 10 μM peptide
Experimental: To 3 ml of buffer with 10 mg collagenase, 3 g epididymal fat pad (from 2-3 male rats) was introduced. The fat was cut up with scissors. The pieces of fat were swirled and shaken in a 37° C. water bath set at 100-150 repetitions/minute for approximately 1 hour with swirling every 15 minutes while digesting and every 5 minutes towards the end. About 6 ml of buffer was added to the vial.
A 250μ nylon mesh over the top was secured with a rubber band and the contents of the container were gently squeezed into a 50 ml plastic tube. The total volume for each wash was 15 ml.
The tube was centrifuged. The adipose cells floated to the top of the liquid. The buffer was removed using a 35 ml metal-tipped syringe with a needle. Buffer was added to 15 ml and the clumps of cells were gently broken up by mixing up and down in the syringe. This process was repeated for a total of 4 centrifugations at 1000 with the last centrifugation at 2000 rpm. At this point, any fat was removed from the top of the cells.
Buffer and dilute cell suspension with buffer were removed to cytocrit of 5-10%. The cells were kept at 37° C. for 1 hour.
500 μl buffer was added with or without additives (insulin 10-10,000 μU/ml, peptides 0.1-10 μM) to 10 ml plastic tubes.
500 μl aliquots of the cell suspension were added to the tubes.
After incubation for 30 minutes at 37° C. in a shaking water bath (approximately 300 strokes/minute), 200 μl of buffer containing 3H—Deoxy Glucose (approx. 1200 cpm/μl) was added to each tube.
After 30 minutes incubation with 3H-DOG at 37° C., 200 μl aliquots were transferred to microcentrifuge tubes containing 200 μl Dinonyl phthalate. Cells were rapidly separated from the aqueous buffer by centrifugation at 10,000 g for 30-60 sec. Cells separated in the top layer from the aqueous buffer by Dinonyl phthalate.
Cell associated radioactivity was counted in a liquid scintillation counter.
Glucose-uptake was measured in fresh adipocytes, incubated with or without insulin (10 μU) as described above, in the absence (control) or the presence of 10 μM of peptide K094D101 (derived from the αD region of IRK).

[4] = 4 mg/mouse intraperitoneally once a day for two consecutive days, treatment day 1
[5] = 4 mg/mouse intraperitoneally once a day for two consecutive days, treatment day 2
[6] = recovery after two days of treatment

K085D102: a Jak2-derived peptide from the αD region, SEQ ID NO:143 (GLRDYLQKHKERI), N-myristylated, C-amidated (Myristoyl-GLRDYLQKHKERI-NH2; SMILES CCCCCCCCCCCCCC(=O)NCC(=O)N[C@@H](CC(C)C)C(=O)N[C@@H](CCCNC(=N)N)C(=O)N[C@@H](CC(=O)O)C(=O)N[C@@H](Cc1ccc(O)cc1)C(=O)N[C@@H](CC(C)C)C(=O)N[C@@H](CCC(N)=O)C(=O)N[C@@H](CCCCN)C(=O)N[C@@H](Cc1c[nH]cn1)C(=O)N[C@@H](CCCCN)C(=O)N[C@@H](CCC(=O)O)C(=O)N[C@@H](CCCNC(=N)N)C(=O)N[C@H](C(N)=O)[C@@H](C)CC)
% change in body wt. (relative to day 0), treatment day 1 [1, 4]: 94% | Food Intake (g/mouse/day), treatment day 1 [1, 4]: 0.24 g/mouse/day | % change in body wt. (relative to day 0), treatment day 2 [1, 5]: 95% | Food Intake (g/mouse/day), treatment day 2 [1, 5]: 1.43 g/mouse/day | Food Intake (g/mouse/day), baseline ([1]; baseline before treatment): 3.16 g/mouse/day | % change in body wt. (relative to day 0), day 0 ([1]; day 0 (reference)): 100% | % change in body wt. (relative to day 0), recovery [1, 6]: 97% | Food Intake (g/mouse/day), recovery [1, 6]: 3.62 g/mouse/day | Melanogenesis induction: lowest concentration showing dose response (B16 melanoma cells): 0.15 µM

K086D101: Jak3 αD region peptide, SEQ ID NO:145 (GMEYLPSGSLRDFLQRHRAL), N-myristylated, C-amidated (Myristoyl-GMEYLPSGSLRDFLQRHRAL-NH2; SMILES CCCCCCCCCCCCCC(=O)NCC(=O)N[C@@H](CCSC)C(=O)N[C@@H](CCC(=O)O)C(=O)N[C@@H](Cc1ccc(O)cc1)C(=O)N[C@@H](CC(C)C)C(=O)N1CCC[C@H]1C(=O)N[C@@H](CO)C(=O)NCC(=O)N[C@@H](CO)C(=O)N[C@@H](CC(C)C)C(=O)N[C@@H](CCCNC(=N)N)C(=O)N[C@@H](CC(=O)O)C(=O)N[C@@H](Cc1ccccc1)C(=O)N[C@@H](CC(C)C)C(=O)N[C@@H](CCC(N)=O)C(=O)N[C@@H](CCCNC(=N)N)C(=O)N[C@@H](Cc1c[nH]cn1)C(=O)N[C@@H](CCCNC(=N)N)C(=O)N[C@@H](C)C(=O)N[C@@H](CC(C)C)C(N)=O)
S.I.* (μM) for PC3 Cells [2]: 0.6 µM | S.I.* (μM) for HEC Cells [3]: 0.6 µM

K086D102: Jak3 peptide derived from the αD region, SEQ ID NO:146 (GMEYLPSGSLRDFLQRHRARL), N-myristylated, C-amidated (Myristoyl-GMEYLPSGSLRDFLQRHRARL-NH2; SMILES CCCCCCCCCCCCCC(=O)NCC(=O)N[C@@H](CCSC)C(=O)N[C@@H](CCC(=O)O)C(=O)N[C@@H](Cc1ccc(O)cc1)C(=O)N[C@@H](CC(C)C)C(=O)N1CCC[C@H]1C(=O)N[C@@H](CO)C(=O)NCC(=O)N[C@@H](CO)C(=O)N[C@@H](CC(C)C)C(=O)N[C@@H](CCCNC(=N)N)C(=O)N[C@@H](CC(=O)O)C(=O)N[C@@H](Cc1ccccc1)C(=O)N[C@@H](CC(C)C)C(=O)N[C@@H](CCC(N)=O)C(=O)N[C@@H](CCCNC(=N)N)C(=O)N[C@@H](Cc1c[nH]cn1)C(=O)N[C@@H](CCCNC(=N)N)C(=O)N[C@@H](C)C(=O)N[C@@H](CCCNC(=N)N)C(=O)N[C@@H](CC(C)C)C(N)=O)
IFNγ production (Th1 conversion) (CD4+ T cells): increase | IL-4 production (Th1 conversion) (CD4+ T cells): decrease

K094D101: peptide derived from the αD region of IRK; SEQ ID NO:137 by list order, possibly SEQ ID NO:136 (myristylated) (Myristoyl-AQNNPGRPPPTL-NH2; SMILES CCCCCCCCCCCCCC(=O)N[C@@H](C)C(=O)N[C@@H](CCC(N)=O)C(=O)N[C@@H](CC(N)=O)C(=O)N[C@@H](CC(N)=O)C(=O)N1CCC[C@H]1C(=O)NCC(=O)N[C@@H](CCCNC(=N)N)C(=O)N1CCC[C@H]1C(=O)N1CCC[C@H]1C(=O)N1CCC[C@H]1C(=O)N[C@H](C(=O)N[C@@H](CC(C)C)C(N)=O)[C@@H](C)O)
Glucose uptake, % of Control, +Insulin 10 μU/ml (fresh adipocytes; insulin 10 μU/ml): 67& | Glucose-Update: Mean DPM ± SEM of Quadruplicates, +Insulin 10 μU/ml (fresh adipocytes; insulin 10 μU/ml): 1,210 ± 110 DPM | Glucose uptake, % of Control, −Insulin (fresh adipocytes; without insulin): 67% | Glucose-Update: Mean DPM ± SEM of Quadruplicates, −Insulin (fresh adipocytes; without insulin): 775 ± 72 DPM
